Assay results taken from publication PMC10518255, “A first-in-class pan-lysyl oxidase inhibitor impairs stromal remodeling and enhances gemcitabine response and survival in pancreatic cancer” (Nature Cancer, 2023).
“And” between values parts separate entries of the source, which are not always exact repeats. Equal values may be shown once.

Target: T1, Recombinant LOXL-1 (Homo sapiens, UniProt Q08397)
T1 sequence (Q08397 96-574): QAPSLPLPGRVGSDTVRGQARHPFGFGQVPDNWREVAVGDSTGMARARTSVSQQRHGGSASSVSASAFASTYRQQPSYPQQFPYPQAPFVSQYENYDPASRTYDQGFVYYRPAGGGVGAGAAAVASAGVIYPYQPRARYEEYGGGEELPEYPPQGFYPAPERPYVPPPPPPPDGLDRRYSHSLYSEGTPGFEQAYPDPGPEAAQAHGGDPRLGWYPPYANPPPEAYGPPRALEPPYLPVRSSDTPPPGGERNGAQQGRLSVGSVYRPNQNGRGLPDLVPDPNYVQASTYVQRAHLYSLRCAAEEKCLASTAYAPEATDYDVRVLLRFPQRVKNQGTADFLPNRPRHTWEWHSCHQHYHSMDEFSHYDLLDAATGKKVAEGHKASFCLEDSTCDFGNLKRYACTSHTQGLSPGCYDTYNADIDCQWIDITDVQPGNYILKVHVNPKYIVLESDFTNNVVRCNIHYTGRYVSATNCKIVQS
Test: Lysyl oxidase enzymatic activity, fluorescence-based assay, IC50
Format: biochemical
Text: Data are presented as mean ± s.d. […] Data presented as mean ± s.d. […] Source data TEXT PRINTED IN THE PICTURE: (b) PXS-5505: Recombinant DAO IC50 (nM): >30,000; Recombinant SSAO/VAP1 IC50 (nM): >30,000; Recombinant MAO-A IC50 (nM): >30,000; Recombinant MAO-B IC50 (nM): >30,000 | (f) PXS-5505: Fibroblast LOX IC50 (nM): 4,930; Recombinant LOXL-1 IC50 (nM): 1,590; Recombinant LOXL-2 IC50 (nM): 570; Recombinant LOXL-3 IC50 (nM): 1,800; Recombinant LOXL-4 IC50 (nM): 190
In characterizing PXS-5505, the half-maximum inhibitory concentration (IC50) values for each of the lysyl oxidase family members were determined by measuring enzymatic activity using a fluorescence-based assay. […]

Structure (SMILES): Cl.Cl.NC/C=C(\F)CS(=O)(=O)c1cccc2cccnc12.O [PXS-5505, (Z)-3-fluoro-4-(quinolin-8-ylsulfonyl)but-2-en-1-amine dihydrochloride monohydrate]
- IC50: 1.59 µM
- LOXL1 activity, IC50 determination curve (log(Concentration) -4.52288, replicates, 30 µM): -0.3767 and 0.3431 and 4.322
- LOXL1 activity, IC50 determination curve (log(Concentration) -5, replicates, 10 µM): 5.837
- LOXL1 activity, IC50 determination curve (log(Concentration) -5.47712, replicates, 3.333 µM): 31.2503 and 31.9336
- LOXL1 activity, IC50 determination curve (log(Concentration) -5.95424, replicates, 1.111 µM): 60.6166 and 67.4565
- LOXL1 activity, IC50 determination curve (log(Concentration) -6.43136, replicates, 0.3704 µM): 85.3221 and 90.5851
- LOXL1 activity, IC50 determination curve (log(Concentration) -6.90849, replicates, 0.1235 µM): 93.09 and 98.6783
- LOXL1 activity, IC50 determination curve (log(Concentration) -7.38561, replicates, 0.04115 µM): 99.6453 and 102.919
- LOXL1 activity, IC50 determination curve (log(Concentration) -7.86273, replicates, 0.01372 µM): 100.176 and 100.944
- LOXL1 activity, IC50 determination curve (log(Concentration) -8.33985, replicates, 0.004572 µM): 101.83 and 104.276
- LOXL1 activity, IC50 determination curve (log(Concentration) -8.81697, replicates, 0.001524 µM): 107.666 and 104.748
- LOXL1 activity, IC50 determination curve (log(Concentration) -9.29409, replicates, 0.000508 µM): 100.744 and 106.953
- activity at 10 µM (read-out: LOXL1 activity, IC50 determination curve, log(Concentration) -5, replicates): 4.51%
- activity at 3.333 µM (read-out: LOXL1 activity, IC50 determination curve, log(Concentration) -5.47712, replicates): 20.9%
- activity at 1.111 µM (read-out: LOXL1 activity, IC50 determination curve, log(Concentration) -5.95424, replicates): 63.8%
- activity at 0.3704 µM (read-out: LOXL1 activity, IC50 determination curve, log(Concentration) -6.43136, replicates): 85%
- activity at 0.1235 µM (read-out: LOXL1 activity, IC50 determination curve, log(Concentration) -6.90849, replicates): 94.6%
- activity at 0.04115 µM (read-out: LOXL1 activity, IC50 determination curve, log(Concentration) -7.38561, replicates): 99.8%
- activity at 0.01372 µM (read-out: LOXL1 activity, IC50 determination curve, log(Concentration) -7.86273, replicates): 100%
- activity at 0.004572 µM (read-out: LOXL1 activity, IC50 determination curve, log(Concentration) -8.33985, replicates): 101%
- activity at 0.001524 µM (read-out: LOXL1 activity, IC50 determination curve, log(Concentration) -8.81697, replicates): 101%
- activity at 0.000508 µM (read-out: LOXL1 activity, IC50 determination curve, log(Concentration) -9.29409, replicates): 102%
